One series concerns Alternaria solani. The series is described as follows: Alternaria test (tomato) / protective. As to conditions: 500 ppm active ingredient, protective spray on young tomato plants, evaluation 7 days after inoculation; 0% = control, 100% = no infection. Type of series: in vivo. As to the method: Alternaria Test (Tomato)/Protective
(§1) • Solvent: 49 parts by weight of N,N-dimethylformamide • Emulsifier: 1 part by weight of alkylaryl polyglycol ether
To produce an appropriate active ingredient formulation, 1 part by weight of active ingredient is mixed with the specified amounts of solvent and emulsifier, and the concentrate is diluted with water to the desired concentration. To test for protective activity, young tomato plants are sprayed with the active ingredient formulation at the stated application rate. One day after the treatment, the plants are inoculated with a spore suspension of Alternaria solani and are then left to stand at 100% relative humidity and 22° C. for 24 h. Subsequently, the plants are left to stand at 96% relative air humidity and a temperature of 20° C. Evaluation follows 7 days after the […]. 0% means an efficacy which corresponds to that of the control, whereas an efficacy of 100% means that no infection is observed.

Series [1] is described as follows: logP by reversed-phase HPLC (EEC Directive 79/831 Annex V.A8). The format is physicochemical. To be noted: method [a]: LC-MS, acidic range pH 2.7, 0.1% aqueous formic acid / acetonitrile, linear gradient 10% to 95% acetonitrile, C18 reversed phase. The method, then:
The logP values were measured in accordance with EEC Directive 79/831 Annex V.A8 by HPLC (High Performance Liquid Chromatography) using reversed-phase columns (C 18) by the following methods:
[a] The LC-MS determination in the acidic range is effected at pH 2.7 with 0.1% aqueous formic acid and acetonitrile (contains 0.1% formic acid) as eluents; linear gradient from 10% acetonitrile to 95% acetonitrile.

Another series deals with Sphaerotheca fuliginea. The series is described as follows: Sphaerotheca test (cucumber) / protective. To be noted: 500 ppm active ingredient, protective spray on young cucumber plants, evaluation 7 days after inoculation; 0% = control, 100% = no infection. The format is in vivo. The method, then: Sphaerotheca Test (Cucumber)/Protective
as §1
To produce an appropriate active ingredient formulation, 1 part by weight of active ingredient is mixed with the specified amounts of solvent and emulsifier, and the concentrate is diluted with water to the desired concentration. To test for protective activity, young cucumber plants are sprayed with the formulation of active ingredient at the stated application rate. 1 day after the treatment, the plants are inoculated with a spore suspension of Sphaerotheca fuliginea. The plants are then placed in a greenhouse at 70% relative air humidity and a temperature of 23° C. Evaluation follows 7 days after the inoculation. 0% means an efficacy which corresponds to that of the control, whereas an efficacy of 100% means that no infection is observed.

The structures appear in SMILES notation. Several values for one entry are separate records, joined by “and”; a condition that tells them apart may be missing. Equal values may be shown once.

Regarding `CC(C)(C)C(O)(CSc1ccc(Cl)cc1)Cc1cncs1` (stereo not drawn) [Compound 34], the efficacy with Alternaria solani is reported as 99%.

As for `CC(C)(C)C(O)(CSc1cc(C(F)(F)F)ccc1Cl)c1cncs1` (stereo not drawn) [Compound 43], the logP result in series [1] was “log p 4.02^[a]”.

For the compound `CC(C)(C)C(O)(CSc1ccc2ccccc2c1)c1cncs1` (stereo not drawn) [Compound 35], the logP entry in series [1] is “log p 3.92^[a]”.

Regarding `CC(C)Oc1ccc(SCC(O)(c2cncs2)C2(C)CCCCC2)cn1` (stereo not drawn) [Compound 16], the efficacy in the series on Alternaria solani is reported as 94%. Also, the logP result in series [1] is “logP 4.70^[a]; [M]^+ = 393”.

In the case of `CC(C)(C)C(O)(CSc1cccc(C(F)(F)F)c1)c1cncs1` (stereo not drawn) [Compound 61], the logP entry in series [1] was “log p 3.74^[a]”.

With `CC(C)(C)C(O)(CSC1CCCCC1)c1cncs1` (stereo not drawn) [Compound 26], the logP entry in series [1] is “log p 4.17^[a]”.

With `CC(C)(C)c1ccc(SCC(O)(c2cncs2)C(C)(C)C)cc1` (stereo not drawn) [Compound 19], the logP entry in series [1] was “log p 3.7^[a]”.

Consider `CC(Oc1ccc(SCC(O)(c2cncs2)C(C)(C)C)cc1)C(C)(C)C` (stereo not drawn) [Compound 46], for which the logP entry in series [1] is “log p 5.53^[a]”.

Consider `CC(C)(C)C(O)(CSc1ccccc1Br)c1cnc(Sc2ccccc2Br)s1` (stereo not drawn) [Compound 27], for which, in series [1], the logP entry is “log p 5.78^[a]”.

With `CC(C)(C)C(O)(CSc1cc(Cl)ccc1Cl)c1cncs1` (stereo not drawn) [Compound 74], the logP result in series [1] was “log p 3.83^[a]”.

Consider `CC(C)(C)C(O)(CSc1cccc(Cl)c1Cl)c1cncs1` (stereo not drawn) [Compound 60], for which, in the series with Alternaria solani, the efficacy is 94%. The logP entry in series [1] was “log p 3.76^[a]”.

Turning to `CCc1cccc(CC)c1SCC(O)(c1cncs1)C(C)(C)C` (stereo not drawn) [Compound 56], in series [1], the logP entry is “log p 4.78^[a]”.

As for `CC(C)(C)C(O)(CSc1ccc(Cl)c(Cl)c1)c1cncs1` (stereo not drawn) [Compound 38], the efficacy is 75% with Alternaria solani; 80% and 90% in the series with Sphaerotheca fuliginea. Moreover, in series [1], the logP entry was “log p 4.05^[a]”.

As for `CC(C)(C)C(O)(CSc1cc(C(F)(F)F)cc(C(F)(F)F)c1)c1cncs1` (stereo not drawn) [Compound 58], the logP result in series [1] is “log p 4.37^[a]”.

On to `CC(C)C(O)(CSc1nncn1-c1ccccc1)c1cncs1` (stereo not drawn) [Compound 25], for which, in series [1], the logP result is “log p 1.76^[a]”.

`CC(C)(C)C(O)(CSc1ccc(Cl)cc1Cl)c1cncs1` (stereo not drawn) [Compound 11]: the efficacy turned out to be 99% in the series with Alternaria solani and 80% in the series with Sphaerotheca fuliginea. Moreover, in series [1], the logP entry was “logP 3.96^[a]; [M]^+ = 361”.

In the case of `CC(C)(C)C(O)(CSCc1ccc(Cl)cc1Cl)c1cncs1` (stereo not drawn) [Compound 10], in series [1], the logP result is “logP 4.29^[a]; [M]^+ = 375”.

Regarding `CC1(C(O)(CSc2ccc(I)cc2)c2cncs2)CCCCC1` (stereo not drawn) [Compound 13], the values for the efficacy in the series with Alternaria solani and with Sphaerotheca fuliginea were 99% and 89%, respectively.

Turning to `CC(=O)c1ccccc1SCC(O)(c1cncs1)C(C)(C)C` (stereo not drawn) [Compound 42], the logP entry in series [1] is “log p 2.66^[a]”.

For `CC(C)(C)C(O)(CSc1ccc(F)cc1)c1cncs1` (stereo not drawn) [Compound 65], the logP entry in series [1] is “log p 3.21^[a]”.

As to `CC(C)(C)C(O)(CSc1ccccc1)c1cncs1` (stereo not drawn) [Compound 73], the logP entry in series [1] was “log p 3.8^[a]”.

For `CC(C)(C)C(O)(CSc1ccccc1Cl)c1cncs1` (stereo not drawn) [Compound 71], the logP result in series [1] is “log p 3.37^[a]”.

Turning to `CC(C)(C)C(O)(CSc1ccc(Cl)s1)c1cncs1` (stereo not drawn) [Compound 4], in series [1], the logP result is “logP 3.68^[a]; [M]^+ = 334”.

`CC(C)(C)C(O)(CSc1cccc(Oc2ccccc2)c1)c1cncs1` (stereo not drawn) [Compound 39]: the logP entry in series [1] is “log p 4.33^[a]”.

Turning to `Cc1ccc(C)c(SCC(O)(c2cncs2)C(C)(C)C)c1` (stereo not drawn) [Compound 70], the logP entry in series [1] was “log p 3.98^[a]”.

Turning to `CC(C)C(O)(CSc1nncn1-c1c(F)cccc1F)c1cncs1` (stereo not drawn) [Compound 24], in series [1], the logP result was “log p 1.8^[a]”.

`Cc1ccc(SCC(O)(c2cncs2)C(C)(C)C)cc1` (stereo not drawn) [Compound 37]: the logP result in series [1] was “log p 3.63^[a]”.

As to `CC(C)(C)C(O)(CSc1ccc(C(=O)c2ccccc2)cc1)c1cncs1` (stereo not drawn) [Compound 53], the logP entry in series [1] was “log p 3.66^[a]”.

For the compound `CC(C)(C)C(O)(CSc1cccc(Cl)c1)c1cncs1` (stereo not drawn) [Compound 72], the logP entry in series [1] is “log p 3.59^[a]”.

Consider `CC(=O)Nc1cccc(SCC(O)(c2cncs2)C(C)(C)C)c1` (stereo not drawn) [Compound 54], for which the logP entry in series [1] is “log p 2.15^[a]”.

`CC(C)(C)C(O)(CSc1ccc(F)cc1F)c1cncs1` (stereo not drawn) [Compound 47]: in series [1], the logP result is “log p 3.26^[a]”.

Regarding `CC(C)(C)C(O)(CSc1cc(Cl)cc(Cl)c1)c1cncs1` (stereo not drawn) [Compound 59], in series [1], the logP entry was “log p 4.18^[a]”.

As for `Cc1cc(C)cc(SCC(O)(c2cncs2)C(C)(C)C)c1` (stereo not drawn) [Compound 68], the logP entry in series [1] was “log p 4.06^[a]”.

For the compound `CC(=O)c1ccc(SCC(O)(c2cncs2)C(C)(C)C)c(Cl)c1` (stereo not drawn) [Compound 49], the logP result in series [1] is “log p 2.91^[a]”.

As to `CC(C)(C)C(O)(CSc1ccc(C(=O)NC2CC2)cc1Cl)c1cncs1` (stereo not drawn) [Compound 40], in series [1], the logP entry is “log p 2.54^[a]”.

With `CC(C)(C)C(O)(CSc1ccc(I)cc1)c1cncs1` (stereo not drawn) [Compound 2], the efficacy in the series on Alternaria solani turned out to be 86%; in the series on Sphaerotheca fuliginea, 95%.

`COc1ccc(SCC(O)(c2cncs2)C(C)(C)C)cc1` (stereo not drawn) [Compound 18]: in series [1], the logP result was “log p 3.16^[a]”.

In the case of `COC(=O)c1ccc(SCC(O)(c2cncs2)C(C)(C)C)cc1` (stereo not drawn) [Compound 41], the logP entry in series [1] was “log p 3.01^[a]”.

Regarding `CSc1ccc(SCC(O)(c2cncs2)C(C)(C)C)cc1` (stereo not drawn) [Compound 51], the logP entry in series [1] is “log p 3.59^[a]”.

On to `CCc1cccc(C)c1SCC(O)(c1cncs1)C(C)(C)C` (stereo not drawn) [Compound 55], for which the logP result in series [1] is “log p 4.41^[a]”.

Regarding `CC(C)(C)C(O)(CSc1cc(Cl)c(Cl)cc1Cl)c1cncs1` (stereo not drawn) [Compound 62], in series [1], the logP entry was “log p 4.41^[a]”.

As to `CCc1ccccc1SCC(O)(c1cncs1)C(C)(C)C` (stereo not drawn) [Compound 69], the logP entry in series [1] was “log p 3.9^[a]”.

With `COC(=O)c1ccccc1SCC(O)(c1cncs1)C(C)(C)C` (stereo not drawn) [Compound 67], in series [1], the logP entry was “log p 2.95^[a]”.

For `CC(C)(C)C(O)(CSc1ccc(Cl)cc1)c1cncs1` (stereo not drawn) [Compound 17], in series [1], the logP result is “log p 3.64^[a]”.

As to `Cc1ccc(SCC(O)(c2cncs2)C(C)(C)C)cc1` (stereo not drawn) [Compound 12], in series [1], the logP entry was “logP 3.63^[a]; [M]^+ = 307”.

In the case of `CC(C)(C)C(O)(CSc1ccccc1Br)c1cncs1` (stereo not drawn) [Compound 21], the logP entry in series [1] is “log p 3.5^[a]”.

`CC(C)(C)C(O)(CSc1cccc2ccccc12)c1cncs1` (stereo not drawn) [Compound 36]: the logP result in series [1] was “log p 3.87^[a]”.

On to `CC(C)(C)C(O)(CSc1ccc(F)c(F)c1)c1cncs1` (stereo not drawn) [Compound 50], for which, in series [1], the logP entry was “log p 3.3^[a]”.

For `CC(C)(C)C(=O)Nc1ccc(SCC(O)(c2cncs2)C(C)(C)C)cc1` (stereo not drawn) [Compound 48], the logP entry in series [1] was “log p 3.14^[a]”.

Take `CC(C)C(O)(CSc1ccc(I)cc1)c1cncs1` (stereo not drawn) [Compound 6]: the efficacy in the series on Sphaerotheca fuliginea came out at 80%.

For `Cc1ccccc1SCC(O)(c1cncs1)C(C)(C)C` (stereo not drawn) [Compound 64], in series [1], the logP result was “log p 3.52^[a]”.

Regarding `CC(C)(C)C(O)(CSc1cccc(Br)c1)c1cncs1` (stereo not drawn) [Compound 20], the logP entry in series [1] is “log p 3.74^[a]”.

On to `CC(=O)Nc1ccc(SCC(O)(c2cncs2)C(C)(C)C)cc1` (stereo not drawn) [Compound 66], for which the logP result in series [1] was “log p 2.13^[a]”.

For the compound `CCOC(=O)c1ccc(SCC(O)(c2cncs2)C(C)(C)C)cc1` (stereo not drawn) [Compound 52], in series [1], the logP result is “log p 3.41^[a]”.

Take `CC(C)C(O)(CSc1nncn1C1CCCCC1)c1cncs1` (stereo not drawn) [Compound 31]: in series [1], the logP entry was “log p 2.04^[a]”.

`Cc1ccc(SCC(O)(c2cncs2)C(C)(C)C)c(C)c1` (stereo not drawn) [Compound 28]: the logP entry in series [1] was “log p 4.02^[a]”.

As for `CCOC(=O)c1ccc(SCC(O)(c2cncs2)C(C)(C)C)c(C)c1` (stereo not drawn) [Compound 45], the logP entry in series [1] is “log p 3.7 ^[a]”.

With `Cc1ccc([S+]([O-])CC(O)(c2cncs2)C(C)(C)C)c(C)c1` (stereo not drawn) [Compound 23], in series [1], the logP entry was “log p 2.92^[a]”.

`CC(C)(C)C(O)(CSc1ccc(-c2ccccc2)cc1)c1cncs1` (stereo not drawn) [Compound 44]: the efficacy in the series on Alternaria solani is on record as 100%. Further, the logP result in series [1] is “log p 4.39 ^[a]”.

In the case of `Cc1cccc(SCC(O)(c2cncs2)C(C)(C)C)c1` (stereo not drawn) [Compound 63], in series [1], the logP result was “log p 3.57^[a]”.

These data come from patent publication US8445691B2, “Heterocyclic thiosubstituted alkanol derivatives” (Bayer CropScience AG, priority 2010, dated 2013).
